Data set [1] addresses T1, SMYD3 (Homo sapiens, UniProt Q9H7B4).
T1 sequence (Q9H7B4 1-428): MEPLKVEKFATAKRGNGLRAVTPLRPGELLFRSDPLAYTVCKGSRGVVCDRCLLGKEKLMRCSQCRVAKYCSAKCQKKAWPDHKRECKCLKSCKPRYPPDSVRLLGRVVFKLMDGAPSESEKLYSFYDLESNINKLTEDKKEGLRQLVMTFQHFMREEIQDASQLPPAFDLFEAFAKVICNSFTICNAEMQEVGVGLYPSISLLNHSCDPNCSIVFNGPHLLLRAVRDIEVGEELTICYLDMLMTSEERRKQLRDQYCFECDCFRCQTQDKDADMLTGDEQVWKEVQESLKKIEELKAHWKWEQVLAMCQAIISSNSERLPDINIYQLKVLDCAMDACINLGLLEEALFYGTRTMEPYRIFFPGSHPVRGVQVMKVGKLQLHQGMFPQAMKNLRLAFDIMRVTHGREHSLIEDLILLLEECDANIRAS
In words: SMYD3 biochemical assay (MTase-Glo, MAP3K2 peptide substrate). The procedure, abridged: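 Luminescent readout of SAH production (coupled SAH→ATP conversion, MTase-Glo) after SMYD3 reacted 30 min at room temperature with 1.0 µM SAM and 10 µM MAP3K2 peptide, both final. Non-linear regression gave IC50 values.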

The next data set relates to HepG2. Briefly: Cell proliferation assay (CellTiter-Glo), HepG2. It counts as cell-based. The settings on record: Homo sapiens, HepG2, 72 h; 3 days. As to the method:
(§1) The cell proliferation assays were tested in several cell lines, including HepG2,HCT116, A549, HPAF-II, CFPAC-1,HuH7, SNU398,Hep3B, and HEK293. All cell lines are from ATCC. HepG2, HPAF-II and HEK293 are cultured in Eagle's MEM media supplemented with fetal bovine serum. HCT116 is cultured in McCoy media supplemented with fetal bovine serum. Huh-7 is cultured in DMEM low glucose (1000 mg/L glucose) with 10% FBS, 1% L-Glutamate and 1% Penicillin/Streptomycin. SNU398 is cultured in RPMI with 10% FBS with 1% L-Glutamate and 1% Penicillin/Streptomycin. Hep3B is cultured in Eagle's MEM with 10% FBS, 1% L-Glutamate and 1% Penicillin/Streptomycin. A549 is cultured in RPMI media supplemented with fetal bovine serum while CFPAC-1 is cultured in IMDM media supplemented with fetal bovine serum. All media and serum are purchased from Gibco (Lifetech). All cells were grown in a temperature controlled incubator at 37° C. and 5% CO2.
(§2) Cell proliferation assay was performed using CellTiter-Glo Luminescent Cell Viability Assay (Promega) following manufacturer's instructions. The cell-line of interest was treated with compounds that were serial diluted in its respective media. Plates were incubated for 3 days at 37° C. in 5% CO2. After 3 days, an equal volume of Cell Titer Glo reagent was added. Plates were rocked on a rotator for 2 h. 100 μL of each well were transferred to a 96-well opaque plate, and luminescence emitted was measured with the Tecan Safire II.

For another data set, the system named is HPAF-II. In words: Cell proliferation assay (CellTiter-Glo), HPAF-II. The data set is classed as cell-based. The settings on record: Homo sapiens, 72 h, 3 days. The procedure: as §1, §2
For the next data set, the system named is CFPAC-1. Briefly: Cell proliferation assay (CellTiter-Glo), CFPAC-1. It counts as cell-based. The settings on record: Homo sapiens, CFPAC-1, 72 h; 3 days. The procedure: as §1, §2
The subject of the next data set is HCT-116. In words: Cell proliferation assay (CellTiter-Glo), HCT-116. It counts as cell-based. The settings on record: Homo sapiens, HCT-116, 72 h; 3 days. As to the method:
as §1, §2

The next data set relates to A549. Briefly: Cell proliferation assay (CellTiter-Glo), A549. The settings on record: Homo sapiens, A549, 72 h; 3 days. It counts as cell-based. As to the method: as §1, §2
The test system of a further data set is Hep G2 cells. In words: Soft agar colony formation assay. It counts as cell-based, human. The following applies: Homo sapiens, HepG2. As to the method:
Hep G2 cells were purchased from ATCC. Hep G2 cells were maintained in Eagle's Minimum Essential Medium (Sigma, Cat No: #M0643) supplemented with 10% Fetal Bovine Serum (Hyclone, Cat No: SV30087.03), 2 mM L-glutamine, 100 units/mL penicillin and 100 μg/mL streptomycin (Life Technologies, Cat No: 10378-016). The soft agar assays were performed in concordance to the ETC approved method report for soft agar assay (ETC document number: RD0019). Briefly, 600 μL of 0.6% agar was added to 24-well plate (Corning, Cat No: 3738) to form the base layer. This is followed by the addition of 500 μL of 0.36% agar middle layer (containing 10′000Hep G2 cells). Lastly, 500 μL of fresh growth medium (containing the corresponding serially diluted compound) was added above the middle layer. The plates were incubated at 37° C. with 5% carbon dioxide in a humidified incubator for 1 to 2 weeks. 70 μL of thiazolyl blue tetrazolium bromide (5 mg/mL, Sigma Cat No: M5655) was added to each well and the plates were incubated at 37° C. for 2 h. Colonies were counted with GelCount® instrument (Oxford Optronix). The colony counts were plotted against compound concentrations using the Graphpad Prism software. In addition, the software was used to perform non-linear curve fitting and the calculation of IC50.

Data set [2] concerns the target ubiquitin specific protease 7 (Homo sapiens, UniProt Q93009). The following applies: cited from earlier work.
The test system of data set [3] is MAP3K2 methylation (me2/me3-Lys 260). In words: SMYD3 mediated methylation of MAP3K2 in HEK293 cells (Western blot). The settings on record: 25 μM. It counts as cell-based, Human. As to the method: (§3) The cells were seeded in 6 well plates. After seeding for 24 h, the cells were treated with either DMSO or 25 μM compound and incubated for 24 hr. The cells were trypsinized and the lysate was extracted with RIPA buffer (Santa Cruz). The total protein concentration of lysate is quantified using the standard Bradford assay (Biorad protein assay, microplate standard assay).
Western blot analysis for detecting methylated MAP3K2 was carried out using a customized Anti-me2/me3-Lys 260 MAP3K2 at 1:500 and the total MAP3K2 was detected using Anti-MEKK2 (AB33918) using a 1:10,000 dilution.
B019 was further tested for its ability to inhibit SMYD3 in cells through its effects on cellular MAP3K2 methylation. This was performed using an antibody against the MAP3K2 (me2/me3), Anti-ME2/ME3-K260-MAP3K2 (1:500) and total MAP3K2, Anti-MEKK2 #ab33918 (1:10,000).

Data set [4] in a line: Human liver microsomes stability test. It counts as in vitro ADME.
Data set [5] is described as follows: Mouse liver microsomes stability test. It counts as in vitro ADME.
Data set [6] addresses T1, SMYD3. The following applies: assay reported in the publication; cited from earlier work.
Data set [7] has as its target T1, SMYD3. In words: Target engagement assay, SMYD3 levels by Western blot in HEK293 cells transfected with Myc-SMYD3. The data set is classed as cell-based. More on the design: host or cells: HEK293 (ATCC). The following applies: compared to B019. As to the method: The target engagement assay was performed with HEK293 that is engineered to overexpress SMYD3 (HEK293-SMYD3). The plasmid SMYD3 (Myc-DDK-tagged-Human SET and MYND domain containing 3) was purchased from Origene (RC230064) and transfected with lipofectamine 2000 (Invitrogen) into HEK293 (ATCC). The cell line is cultured in Eagle's MEM media supplemented with fetal bovine serum and geneticin (Invitrogen). Presence of over-expressed SMYD3 is confirmed with western blot with antibody against SMYD3 and the MYC tag as well as with RT-PCR with SMYD3 primers.
as §3
Western blot analysis was performed using antibody against SMYD3 in HEK293 cells over-expressing SMYD3 (HEK293-SMYD3) treated with compound at different time points. 15.0 μg of cell lysate was diluted in 2× Laemmli sample buffer (Bio-Rad) and boiled at 100° C. on heat block for 5 min. Lysates were separated using NuPAGE® 4-12% Bis-Tris precast polyacrylamide gels (Lifetech) at 200 V, […] for 40 min. […]

The mark [8] stands for this setting: Table 1, MAP3K2 peptide as substrate, read-out: IC50.
Setting [9] is: Table 2, read-out: Biochemical assay IC50.
Setting [10] is: Table 3, MTase assay, MAP3K2 peptide substrate, read-out: IC50.
Setting [11] is: Table 4, prior art compounds, read-out: IC50.

Read-outs that look alike come from different tables or passages of the source.

Chain of ubiquitin specific protease 7 (Q93009 whole entry): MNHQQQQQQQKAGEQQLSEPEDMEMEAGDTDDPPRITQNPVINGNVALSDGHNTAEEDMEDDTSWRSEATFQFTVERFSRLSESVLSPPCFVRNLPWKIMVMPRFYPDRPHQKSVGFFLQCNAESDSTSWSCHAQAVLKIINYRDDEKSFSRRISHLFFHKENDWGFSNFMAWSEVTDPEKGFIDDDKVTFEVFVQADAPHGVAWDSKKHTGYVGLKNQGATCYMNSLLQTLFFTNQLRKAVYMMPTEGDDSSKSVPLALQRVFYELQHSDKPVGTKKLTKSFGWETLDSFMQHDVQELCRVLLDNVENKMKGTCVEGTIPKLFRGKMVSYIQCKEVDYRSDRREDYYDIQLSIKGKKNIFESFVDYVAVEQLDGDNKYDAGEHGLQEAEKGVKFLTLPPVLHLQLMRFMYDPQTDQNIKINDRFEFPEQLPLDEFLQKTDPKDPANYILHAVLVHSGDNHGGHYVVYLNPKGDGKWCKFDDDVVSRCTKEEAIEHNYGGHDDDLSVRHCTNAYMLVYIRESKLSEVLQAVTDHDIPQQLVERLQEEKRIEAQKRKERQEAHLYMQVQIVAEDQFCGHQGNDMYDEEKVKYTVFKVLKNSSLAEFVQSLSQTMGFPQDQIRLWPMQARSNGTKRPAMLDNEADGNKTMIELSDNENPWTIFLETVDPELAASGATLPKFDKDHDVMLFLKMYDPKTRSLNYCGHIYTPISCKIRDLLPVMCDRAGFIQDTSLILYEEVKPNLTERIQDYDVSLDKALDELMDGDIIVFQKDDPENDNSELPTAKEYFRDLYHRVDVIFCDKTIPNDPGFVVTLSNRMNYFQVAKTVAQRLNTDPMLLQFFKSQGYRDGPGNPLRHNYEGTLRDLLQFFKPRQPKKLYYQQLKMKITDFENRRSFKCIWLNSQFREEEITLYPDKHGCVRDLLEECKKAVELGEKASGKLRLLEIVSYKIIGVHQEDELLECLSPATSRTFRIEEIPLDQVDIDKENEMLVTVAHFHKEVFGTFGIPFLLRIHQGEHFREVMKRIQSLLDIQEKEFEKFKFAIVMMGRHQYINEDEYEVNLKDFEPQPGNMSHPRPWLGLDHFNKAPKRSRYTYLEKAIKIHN

As for `CCCOC(=O)N1CCN(C(=O)c2ccc3c(Cl)c4c(nc3c2)CCC(CCN)C4)CC1` (centres unmarked) [A066, Propyl 4-(7-(2-aminoethyl)-9-chloro-5,6,7,8-tetrahydroacridine-3-carbonyl)piperazine-1-carboxylate], the IC50 on SMYD3 [1] (setting [8]) came out at 0.0461 µM; at SMYD3 [1] (setting [9]), 0.0461 µM; at SMYD3 [1] (setting [10]), 0.3 µM. The 50% growth inhibitory concentration (GI50) in the data set on HepG2 amounted to 33.1 µM; in the data set with HPAF-II, 11.1 µM; in the data set with CFPAC-1 it was 15.3 µM; in the data set with HCT-116 it was 24.9 µM; in the data set on A549, 18.4 µM.
Regarding `CCCOC(=O)N1CCN(C(=O)c2ccc3c(Cl)c4c(nc3c2)CC(c2ccccn2)CC4)C[C@H]1C` (stereo partly drawn) [A074, Propyl (2R)-4-(9-chloro-6-(pyridin-2-yl)-5,6,7,8-tetrahydroacridine-3-carbonyl)-2-methylpiperazine-1-carboxylate], the IC50 is 0.152 µM at SMYD3 [1] (setting [8]); 0.152 µM at SMYD3 [1] (setting [9]); 0.15 µM on SMYD3 [1] (setting [10]); 0.71 µM in the data set on Hep G2 cells (Hep G2, soft agar). The GI50 was 10.7 µM with HepG2; 50.4 µM in the data set on HPAF-II; 36.9 µM in the data set on CFPAC-1; 11.4 µM in the data set on HCT-116; 15.8 µM in the data set on A549. For the same compound, the inhibition at 10 µM in the data set on Hep G2 cells (highest concentration tested (10 μM)) was about 100%.
Turning to `CCCOC(=O)N1CCN(C(=O)c2ccc3c(Cl)c4c(nc3c2)CC(CCN)CC4)[C@@H](C)C1` (stereo partly drawn) [A088, Propyl (3S)-4-(6-(2-aminoethyl)-9-chloro-5,6,7,8-tetrahydroacridine-3-carbonyl)-3-methylpiperazine-1-carboxylate], the values for the IC50 on SMYD3 [1] (setting [8]), at SMYD3 [1] (setting [9]) and on SMYD3 [1] (setting [10]) were 0.092 µM, 0.092 µM and 0.09 µM, respectively. The GI50 with HepG2 amounted to 17.1 µM; in the data set with HPAF-II it was 33.7 µM; in the data set on CFPAC-1, 21.9 µM; with HCT-116 it was 16.1 µM; in the data set on A549, 28.4 µM.
In the case of `Cc1cccc(CN2CCC(CNC(=O)c3ccc4c(Cl)c5c(nc4c3)CCCC5)CC2)c1` [X2, reference compound], the “activity against SMYD3” value at SMYD3 [1] is on record as “not active”. Also, the IC50 at SMYD3 [1] (setting [11]) turned out to be 750 µM. Further, the “activity against ubiquitin specific protease 7” value in data set [2] was “act against”.
For the compound `CN1CCC(N2CCN(C(=O)c3ccc4c(Cl)c5c(nc4c3)CCCC5)CC2)CC1` [X3, reference compound], at SMYD3 [1], the “activity against SMYD3” value is reported as “not active”. The IC50 on SMYD3 [1] (setting [11]) was found to be 750 µM. The “activity against ubiquitin specific protease 7” value in data set [2] is listed as “act against”.
As to `CCOC(=O)N1CCN(C(=O)c2ccc3c(Cl)c4c(nc3c2)CCCC4)CC1` [X4, ethyl 4-(9-chloro-5,6,7,8-tetrahydroacridine-3-carbonyl)piperazine-1-carboxylate, reference compound], the IC50 on SMYD3 [1] (read-out: active against SMYD3) came out at 6.2 µM. Further, the “inhibition of methylation of MAP3K2 in cells” value in [3] is “unable to inhibit”. In addition, the half-life in data set [4] (read-out: half-life, t1/2) came out at 9 min; in [5] (read-out: half-life, t1/2), 4 min.
With `O=C1Cc2cc(C(=O)N[C@H]3C[C@H]4CC[C@@H](C3)N4S(=O)(=O)CC3CCN(CCCC(F)(F)F)CC3)c(Cl)cc2N1` [X5], at SMYD3 [6], the “active against SMYD3” value was 3 nM.
On to `CCOC(=O)N1CCN(C(=O)c2ccc3c(Cl)c4c(nc3c2)CCCC4)CC1` [ethyl 4-(9-chloro-5,6,7,8-tetrahydroacridine-3-carbonyl)piperazine-1-carboxylate], for which, at SMYD3 [1], the “activity against SMYD3” value is “moderately active”. Also, the metabolic stability entry in data set [4] (high metabolic clearance) and in [5] (high metabolic clearance) was “poor” in each case. In addition, the target engagement entry on SMYD3 [7] is “poor”.

Values taken from patent US20190071416A1, “COMPOUNDS FOR TREATMENT OF CANCER AND EPIGENETICS” (Agency For Science, Technology and Research, priority 2015, published 2019).
